{"source": "paper PMC4965473", "about": "(Frontiers in Physiology, 2016)", "key": {"[1]": {"tested_on": "M2 transmembrane domain (M2TMD)", "details": "cited from earlier work"}, "[2]": {"tested_on": "wt M2TMD21−49", "design": "species or system influenza A"}}, "note": "Where a name gives a salt, the structure may show the parent alone.", "data": [{"compound": "NC12CC3CC(CC(C3)C1)C2", "note": "[amantadine, amantadine hydrochloride]", "values": [{"measurement": "binding affinity of amantadine versus pH", "setting": "[1]", "result": "Increased binding affinity of amantadine at neutral or basic pH, compared to acidic pH"}, {"measurement": "effect of amantadine on M2TMD tetramer", "setting": "[1]", "result": "stabilizing effect of amantadine on M2TMD tetramer"}, {"measurement": "effect of longer incubation with amantadine on DEER data", "setting": "[2]", "result": "did not produce any additional effect on the DEER data"}, {"measurement": "effect of amantadine on DEER distances", "setting": "[2]; pH 5.5", "result": "do not change upon the addition of 2 mM amantadine"}, {"measurement": "effect of amantadine on DEER signal / modulation depth", "setting": "[2]; pH 5.5", "result": "almost negligible"}]}]}
